Assay results taken from EP0974573A1, “PHENYLPROPENONE COMPOUNDS AND MEDICINES CONTAINING THE SAME” (Kabushiki Kaisha Yakult Honsha, priority 1997, dated 1998).

Legend:
SD rats = assay: Plasma cholesterol elevation inhibitory effects on rats loaded with high cholesterol diet, feed-mixed administration (Test 3); type: in vivo, rat; details: 0.005% of compound added to hyperlipemia inducing diet, ad libitum 3 days
Text: Using 5-week old male SD rats (120-150 g, 10 rats per group, individual feeding), plasma cholesterol elevation inhibitory effects of various compounds in the Examples on rats were studied. To a control group, a feed which had been prepared by adding 1.5% of cholesterol, 0.5% of cholic acid, 10% of coconut oil and 10% of sugar to "F-2 Diet" (product of FUNABASHI FARM CO., LTD.) was given ad libitum as a hyperlipemia inducing diet.
To each test-compound-administered group, on the other hand, a feed which had been prepared by adding 0.005% of the corresponding compound in the Examples to the hyperlipemia inducing diet of the above-described composition was given ad libitum. Further, a normal diet group to which a feed similar to the hyperlipemia inducing diet except for the exclusion of cholesterol was also tested similarly. As a testing method, after these feeds were given ad libitum for 3 days, bloods were drawn on the 4th day from the abdominal aortas of the individual rats under anesthesia with Nembutal. Subsequent to collection of plasma from each blood sample, the plasma cholesterol was quantitated by a "DETERMINER TC555 KIT" (product of Kyowa Medex Co., Ltd.) while the HDL cholesterol was quantitated by "DETERMINER HDL KIT" (product of Kyowa Medex Co., Ltd.). The liver cholesterol was measured by extracting it in accordance with the Folch's method and then measuring it with a "DETERMINER TC555 KIT". Statistical processing of the data so obtained was conducted by the Danett's test.

[1] = test system: J774.1 strain, an established cell line of mouse macrophage; assay: Inhibitory effects on the accumulation of cholesterol esters in macrophage (Test 2); type: cell-based; details: J774.1 mouse macrophage, 12 hours incubation with cholesterol liposomes
Protocol: Inhibitory effects on the accumulation of cholesterol esters in macrophage were tested using J774.1 strain, an established cell line of mouse macrophage.
Metabolism of LDL in endothelial cells or smooth muscle cells causes downregulation of the LDL receptor by excess free cholesterol in the cells, but in a macrophage, uptake of modified lDL takes place via a scavenger receptor. As no regulation is applied to this pathway, cholesterol esters progressively accumulate without any limitation.
It was therefore studied whether or not corydaline would inhibit intracellular accumulation of cholesterol esters by having liposomes, which were formed of […] cholesterol and phosphatidylcholine, uptaken in macrophage cells and then causing them to act on acyl-CoA:cholesterol acyltransferase which existed on rough-surfaced endoplasmic reticula.
The macrophage cells were incubated for 2 days under 5% CO2 on an RPMI 1640 medium (product of NISSUI PHARMACEUTICAL CO., LTD.) which had been added with 10% fetal bovine serum, penicilin (50 U/mℓ) and streptomycin (50 µg/mℓ). Trypsinization was then conducted, and cells attached to the bottom of each well were peeled off and formulated into a cell suspension. The cells were washed with a fresh supply of the above-described culture medium, and the cell solution was then seeded at 2 x 10^6 cells/mℓ on a 24-well multiple well plate ("25820-24", product of CORNING INC.). After incubation at 37°C under 5% CO2 for 37 hours, the culture medium was replaced with a fresh supply of the above-described culture medium and, after a 0.3 M glucose solution (40 µℓ) with cholesterol [80 µg; containing 0.4 µCi of (^3H)-cholesterol] and phosphatidylcholine (160 µg) contained therein and a methanol solution (10 µℓ)with a test sample dissolved therein were added, incubation was conducted for 12 hours. These procedures were carried out aseptically.
After completion of the incubation, cells attached to each bottom were washed 5 times with a serum-free RPMI 1640 medium by a graduated pipet, and isopropanol (1 mℓ) was added to extract intracellular cholesterol and formed cholesterol esters. The extract was coated in its entirety on a silica gel thin layer chromatography ("Art 5553", product of MERCK & Co., INC.) and subsequent to development with a 80:20:2 mixture of hexane, ethyl ether and formic acid, autoradiography was performed.
A section, which contained ^3H-labelled cholesterol esters and cholesterol, was cut off. Its radioactivity was measured by a liquid scintillation counter and compared with a control, whereby a cholesterol ester accumulation inhibition rate was determined.

rat-derived ACAT = assay: Inhibitory effects on rat-derived ACAT (Test 1); type: biochemical; details: crude enzyme from microsome protein fractions of rat liver, (14C)-oleoyl-CoA substrate, 37°C
Protocol: To test effects on ACAT, a reaction was conducted in vitro to form (^14C)-cholesteryl oleate from endogeneous cholesterol in the presence of (^14C)-oleoyl-CoA as a substrate by using a crude enzyme prepared from microzome protein fractions of a rat liver.
The reaction mixture had the following composition: 20 µℓ of microsome protein (1.83 mg/mℓ), 20 µℓ of (^14C)-oleoyl-CoA (5 µCi/mℓ, BSA: 96 nmol/mℓ), 106 µℓ of 100 mM phosphate buffer (containing 5 mM of dithiothreitol, pH 7.4) and a sample dissolved in 4 µℓ of methanol or dimethyl sulfoxide; 150 µℓ in total.
The reaction was conducted at 37°C. After an elapse of a predetermined reaction time (18 minutes in general), a 2:1 mixture of chloroform and methanol (5.65 mℓ) was added to terminate the reaction. A 0.04 N aquous solution of hydrochloric acid (0.98 mℓ) and as a carrier, cholesteryl oleate were added, followed by extraction for 20 minutes on a shaking apparatus. The mixture was then allowed to stand overnight in a cold dark place. On the following day, the separated lower chloroform layer was extracted in its entirety and was dried under a nitrogen gas stream. The remaining upper layer was added with the lower layer (5.65 mℓ) of the Folch's partition solution, and was extracted again. After the mixture was allowed to stand overnight in a dark place, the lower layer was drawn in its entirety. This lower layer was combined with the lower chloroform layer fraction, which had already been dried to solid, and the mixture was then dried to solid.
The solid was then dissolved in chlorofrom (200 µℓ), and the solution was coated in its entirety on a G60 plate (aluminum sheet) for silica gel thin layer chromatography. After the solid was developedover 10 cm with a 10:190 mixture of diethyl ether and petroleum ether, autoradiography was conducted and the formation of (^14C)-colesteryl oleate was confirmed. This section was then cut off. The radioactivity of each sample was measured by subjecting it to liquid scintillation counting for 5 minutes in toluene or was measured for 30 minutes by a "Betascope" (manufactured by BETA-GEN INC. The results so obtained are shown in Table 1. Table 1

ACAT = assay: Screening toward substances having ACAT activity inhibitory effects; type: biochemical; details: screening finding, no value given

Structure (SMILES) | Inhibitory rate (%) of plasma total cholesterol elevation in rat (SD rats) [%] | IC50 (rat-derived ACAT) [nM] | also measured
CCCCCCCCCCOc1c(OC)cc(/C=C/C(=O)Nc2ccc(Oc3ccccc3)cc2)cc1OC [Compound 55, N-(4-phenoxyphenyl)-(2E)-3-(3,5-dimethoxy-4-decyloxyphenyl)-2-propenamide] | 34 | – | –
COc1cc(/C=C/C(=O)N2CCN(c3ccc(C)cc3C)CC2)cc(OC)c1OCCOc1ccccc1 [Compound 24, N-[4-(2,4-dimethylphenyl)-1,4-diazacyclohexyl]-(2E)-3-[3,5-dimethoxy-4-(2-phenoxy)ethyloxy]-2-propenamide] | 20 | – | IC50 [1]: 720 nM
CCCCCCCCCCCCOc1c(OC)cc(/C=C/C(=O)NN2CCN(c3ccc(C)c(C)c3)CC2)cc1OC [Compound 10, N-[4-(3,4-dimethylphenyl)-1,4-diazacyclohexyl]-(2E)-3-(3,5-dimethoxy-4-dodecyloxyphenyl)-2-propenamide] | 33 | 71 | –
COc1cc(/C=C/C(=O)CCCCc2ccccc2)ccc1O [yakutinone B] | – | – | ACAT activity inhibitory effects (ACAT): exhibits ACAT activity inhibitory effects
CCCCCCCCCCOc1c(OC)cc(/C=C/C(=O)NCCOc2ccccc2)cc1OC [Compound 52, N-(2-phenoxyethyl)-(2E)-3-(3,5-dimethoxy-4-decyloxyphenyl)-2-propenamide] | 23 | – | –
CCCCCCCCCCCOc1c(OC)cc(/C=C/C(=O)NN2CCN(c3ccc(C)c(C)c3)CC2)cc1OC [Compound 9, N-[4-(3,4-dimethylphenyl)-1,4-diazacyclohexyl]-(2E)-3-(3,5-dimethoxy-4-undecyloxyphenyl)-2-propenamide] | 28 | 45 | –
COc1cc(/C=C/C(=O)Nc2ccc(Cl)cc2)cc(OC)c1OCc1ccccc1 [Compound 78, N-(4-chlorophenyl)-(2E)-3-(3,5-dimethoxy-4-benzyloxyphenyl)-2-propenamide] | – | 35 | IC50 ([1]; Mus musculus, J774.1, 12 h): 170 nM
COc1cc(/C=C/C(=O)Nc2cccc(C)c2C)cc(OC)c1OCc1ccccc1 [Compound 64, N-(2,3-dimethylphenyl)-(2E)-3-(3,5-dimethoxy-4-benzyloxyphenyl)-2-propenamide] | – | 35 | IC50 ([1]; Mus musculus, J774.1, 12 h): 900 nM
